The conditions of this series: Crystal; visual observation.

± gives the expanded uncertainty stated by the source.

For the molecule `CC1(C)COP(=O)(C(Nc2ccccc2)c2ccccc2)OC1` (stereo unspecified), the Normal melting temperature amounted to 175 ± 2 °C.

The values above are taken from the NIST ThermoML archive (doi:10.1021/acs.jced.7b00585).
